Data set [1] addresses T1, Gap1p (Saccharomyces cerevisiae, UniProt P19145, A297V/K16R/K9R).
T1 sequence (P19145 1-602 K9R/K16R/A297V): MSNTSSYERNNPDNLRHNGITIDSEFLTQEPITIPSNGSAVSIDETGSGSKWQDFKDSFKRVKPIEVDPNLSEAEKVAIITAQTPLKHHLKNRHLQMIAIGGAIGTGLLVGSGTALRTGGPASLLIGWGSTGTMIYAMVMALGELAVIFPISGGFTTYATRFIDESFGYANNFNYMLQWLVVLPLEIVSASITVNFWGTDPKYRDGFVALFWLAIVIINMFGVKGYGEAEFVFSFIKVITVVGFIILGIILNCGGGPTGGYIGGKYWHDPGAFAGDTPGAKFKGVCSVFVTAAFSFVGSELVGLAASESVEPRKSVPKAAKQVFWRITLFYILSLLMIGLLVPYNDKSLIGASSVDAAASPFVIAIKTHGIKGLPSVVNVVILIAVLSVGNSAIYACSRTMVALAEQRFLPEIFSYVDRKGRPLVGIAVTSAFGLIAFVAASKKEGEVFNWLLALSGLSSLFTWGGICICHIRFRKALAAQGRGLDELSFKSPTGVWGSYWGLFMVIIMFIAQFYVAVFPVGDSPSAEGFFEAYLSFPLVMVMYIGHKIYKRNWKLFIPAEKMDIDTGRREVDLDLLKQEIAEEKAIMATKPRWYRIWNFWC
The experiment in a line: competitive inhibition of […]-glycine uptake in yeast cells. It counts as cell-based.

Data set [2] concerns the target T2, Gap1p (Saccharomyces cerevisiae, UniProt P19145, K16R/K9R).
T2 sequence (P19145 1-602 K9R/K16R): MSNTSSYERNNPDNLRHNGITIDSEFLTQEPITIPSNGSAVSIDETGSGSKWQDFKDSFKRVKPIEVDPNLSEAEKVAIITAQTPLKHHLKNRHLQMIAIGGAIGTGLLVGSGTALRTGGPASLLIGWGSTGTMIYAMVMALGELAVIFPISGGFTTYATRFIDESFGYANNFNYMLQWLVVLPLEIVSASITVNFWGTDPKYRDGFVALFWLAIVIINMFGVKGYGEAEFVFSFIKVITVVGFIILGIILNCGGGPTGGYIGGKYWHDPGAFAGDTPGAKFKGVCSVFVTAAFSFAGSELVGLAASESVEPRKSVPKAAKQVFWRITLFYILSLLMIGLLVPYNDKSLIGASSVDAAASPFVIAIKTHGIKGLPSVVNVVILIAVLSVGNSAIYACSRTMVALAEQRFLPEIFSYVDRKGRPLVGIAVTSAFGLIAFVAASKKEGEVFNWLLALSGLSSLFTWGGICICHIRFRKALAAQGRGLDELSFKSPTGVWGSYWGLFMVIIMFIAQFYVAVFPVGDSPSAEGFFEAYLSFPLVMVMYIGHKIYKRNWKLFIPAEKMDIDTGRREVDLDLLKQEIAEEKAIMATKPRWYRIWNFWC
The description is as above. It counts as cell-based.

Substrate in data set [3]: NCC(=O)O
Kind of data set: cells, lysate or membranes. To be noted: active site (amino acid binding pocket). It counts as cell-based, Saccharomyces cerevisiae.

`NC(=O)NCCC[C@H](N)C(=O)O` [citrulline]: the Ki is ~35.6 µM on Gap1p [1] and ~36.6 µM at Gap1p [2].

B1: Gap1p (Saccharomyces cerevisiae S288C; K16R/K9R) (protein)
chain: MSNTSSYERNNPDNLRHNGITIDSEFLTQEPITIPSNGSAVSIDETGSGSKWQDFKDSFKRVKPIEVDPNLSEAEKVAIITAQTPLKHHLKNRHLQMIAIGGAIGTGLLVGSGTALRTGGPASLLIGWGSTGTMIYAMVMALGELAVIFPISGGFTTYATRFIDESFGYANNFNYMLQWLVVLPLEIVSASITVNFWGTDPKYRDGFVALFWLAIVIINMFGVKGYGEAEFVFSFIKVITVVGFIILGIILNCGGGPTGGYIGGKYWHDPGAFAGDTPGAKFKGVCSVFVTAAFSFAGSELVGLAASESVEPRKSVPKAAKQVFWRITLFYILSLLMIGLLVPYNDKSLIGASSVDAAASPFVIAIKTHGIKGLPSVVNVVILIAVLSVGNSAIYACSRTMVALAEQRFLPEIFSYVDRKGRPLVGIAVTSAFGLIAFVAASKKEGEVFNWLLALSGLSSLFTWGGICICHIRFRKALAAQGRGLDELSFKSPTGVWGSYWGLFMVIIMFIAQFYVAVFPVGDSPSAEGFFEAYLSFPLVMVMYIGHKIYKRNWKLFIPAEKMDIDTGRREVDLDLLKQEIAEEKAIMATKPRWYRIWNFWC
Consider B1, for which, in data set [3], the Km turned out to be 20.0 ± 5.3 µM.

B2: Gap1p (Saccharomyces cerevisiae S288C; A297V/K16R/K9R) (protein)
chain: MSNTSSYERNNPDNLRHNGITIDSEFLTQEPITIPSNGSAVSIDETGSGSKWQDFKDSFKRVKPIEVDPNLSEAEKVAIITAQTPLKHHLKNRHLQMIAIGGAIGTGLLVGSGTALRTGGPASLLIGWGSTGTMIYAMVMALGELAVIFPISGGFTTYATRFIDESFGYANNFNYMLQWLVVLPLEIVSASITVNFWGTDPKYRDGFVALFWLAIVIINMFGVKGYGEAEFVFSFIKVITVVGFIILGIILNCGGGPTGGYIGGKYWHDPGAFAGDTPGAKFKGVCSVFVTAAFSFVGSELVGLAASESVEPRKSVPKAAKQVFWRITLFYILSLLMIGLLVPYNDKSLIGASSVDAAASPFVIAIKTHGIKGLPSVVNVVILIAVLSVGNSAIYACSRTMVALAEQRFLPEIFSYVDRKGRPLVGIAVTSAFGLIAFVAASKKEGEVFNWLLALSGLSSLFTWGGICICHIRFRKALAAQGRGLDELSFKSPTGVWGSYWGLFMVIIMFIAQFYVAVFPVGDSPSAEGFFEAYLSFPLVMVMYIGHKIYKRNWKLFIPAEKMDIDTGRREVDLDLLKQEIAEEKAIMATKPRWYRIWNFWC
Take B2: in data set [3], the Km turned out to be 12.7 ± 1.12 µM.

As usually defined, the Ki is a measure of affinity in units of concentration, obtained from inhibition or displacement. The low end stands for tighter binding, the high end for weaker binding. One may read the Km as the concentration of substrate that gives half-maximal velocity.

(Values after publication PMC3103407 (2011).)
